From paper PMC2679894 (Journal of molecular biology, 2009)

Molecular target: KsgA (Thermus thermophilus, UniProt Q5SM60)
Assay: X-ray crystal structure
Settings: cofactor-binding site; co-crystallised with 4 mM adenosine and 4 mM AdoMet, 50 °C for 10 min; crystal form KsgA2

Sequence of KsgA (Q5SM60 whole entry): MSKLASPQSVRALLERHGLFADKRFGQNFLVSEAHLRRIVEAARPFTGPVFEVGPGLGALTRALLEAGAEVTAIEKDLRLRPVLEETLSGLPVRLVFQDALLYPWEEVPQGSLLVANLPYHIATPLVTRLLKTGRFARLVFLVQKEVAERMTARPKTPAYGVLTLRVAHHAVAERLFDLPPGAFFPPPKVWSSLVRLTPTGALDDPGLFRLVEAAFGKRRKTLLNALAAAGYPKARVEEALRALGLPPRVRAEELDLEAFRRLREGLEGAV

## Nc1ncnc2c1ncn2[C@@H]1O[C@H](CO)[C@@H](O)[C@H]1O [adenosine]
  X-ray crystal structure: these crystals were found to have adenosine in the cofactor-binding site
